In the supplement of paper PMC6045584:
± gives the standard deviation of the averaged measurements.

Key:
[1] = compound: CO[C@H]1C[C@@H]2CC[C@@H](C)[C@@](O)(O2)C(=O)C(=O)N2CCCC[C@H]2C(=O)O[C@H]([C@H](C)C[C@@H]2CC[C@@H](OCCO)[C@H](OC)C2)CC(=O)[C@H](C)/C=C(\C)[C@@H](O)[C@@H](OC)C(=O)[C@H](C)C[C@H](C)/C=C/C=C/C=C/1C [EVEROLIMUS]; test: surviving fraction relative to DMSO-only wells; higher = less growth inhibition; details: exposure time: 5 days
Summary of the method: (§1)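 Tumour cell lines were seeded in log phase at 250–500 cells per well into 384-well plates. Starting 24 hours later, inhibitors were present continuously for five days at 0.5, 1, 5, 10, 50, 100, 500 and 1000 nM. Surviving fraction, from CellTiter-Glo luminescence, is normalised to the median of DMSO-only wells. Three screens per line were required, with replicate Pearson r >0.7 and median Z' >0.3 for a line to be kept.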

[2] = compound: CCCS(=O)(=O)Nc1ccc(F)c(C(=O)c2c[nH]c3ncc(Cl)cc23)c1F [PLX-4720]; test: as above; details: exposure time: 5 days
Summary of the method: as §1

Row | Test System | surviving fraction ([1]; 0.5 nM) | surviving fraction ([1]; 1 nM) | surviving fraction ([1]; 5 nM) | surviving fraction ([1]; 10 nM) | surviving fraction ([1]; 50 nM) | surviving fraction ([1]; 100 nM) | surviving fraction ([1]; 500 nM) | surviving fraction ([1]; 1000 nM) | surviving fraction ([2]; 0.5 nM) | surviving fraction ([2]; 1 nM) | surviving fraction ([2]; 5 nM) | surviving fraction ([2]; 10 nM) | surviving fraction ([2]; 50 nM) | surviving fraction ([2]; 100 nM) | surviving fraction ([2]; 500 nM) | surviving fraction ([2]; 1000 nM)
1 | C33A CERVIX | 0.757 ± 0.058 | 0.649 ± 0.06 | 0.469 ± 0.017 | 0.432 ± 0.0057 | 0.355 ± 0.027 | 0.369 ± 0.028 | 0.303 ± 0.051 | 0.277 ± 0.015 | 1.03 ± 0.18 | 0.994 ± 0.044 | 1.12 ± 0.14 | 1.13 ± 0.045 | 1.01 ± 0.17 | 1.05 ± 0.13 | 0.946 ± 0.1 | 1.06 ± 0.13
2 | CAL72 BONE | 0.967 ± 0.17 | 0.87 ± 0.16 | 0.707 ± 0.12 | 0.671 ± 0.1 | 0.61 ± 0.056 | 0.641 ± 0.057 | 0.576 ± 0.028 | 0.608 ± 0.026 | 0.969 ± 0.041 | 1.02 ± 0.036 | 0.964 ± 0.015 | 1.03 ± 0.035 | 1.076 ± 0.006 | 1.104 ± 0.011 | 1.09 ± 0.04 | 1.08 ± 0.036
3 | G292 BONE | 0.803 ± 0.0075 | 0.721 ± 0.038 | 0.518 ± 0.015 | 0.476 ± 0.024 | 0.433 ± 0.0098 | 0.436 ± 0.014 | 0.408 ± 0.015 | 0.405 ± 0.01 | 0.893 ± 0.022 | 0.977 ± 0.042 | 0.973 ± 0.039 | 0.972 ± 0.043 | 0.956 ± 0.024 | 1.0012 ± 0.00029 | 0.979 ± 0.026 | 0.973 ± 0.085
4 | HUO3N1 BONE | 0.751 ± 0.021 | 0.688 ± 0.011 | 0.655 ± 0.013 | 0.632 ± 0.016 | 0.624 ± 0.043 | 0.617 ± 0.042 | 0.581 ± 0.031 | 0.607 ± 0.023 | 0.849 ± 0.014 | 0.886 ± 0.035 | 0.92 ± 0.055 | 0.913 ± 0.042 | 0.989 ± 0.028 | 1.02 ± 0.059 | 1.01 ± 0.063 | 1.01 ± 0.067
5 | LNCAP PROSTATE | 0.679 ± 0.048 | 0.544 ± 0.012 | 0.409 ± 0.033 | 0.404 ± 0.043 | 0.285 ± 0.032 | 0.288 ± 0.0055 | 0.219 ± 0.0032 | 0.222 ± 0.0092 | 1.17 ± 0.08 | 1.08 ± 0.051 | 1.15 ± 0.097 | 1.12 ± 0.035 | 0.892 ± 0.11 | 0.846 ± 0.011 | 0.898 ± 0.09 | 1.03 ± 0.12
6 | SCC003 HEADNECK | 1.07 ± 0.043 | 1 ± 0.04 | 1.04 ± 0.035 | 0.961 ± 0.036 | 0.953 ± 0.037 | 0.94 ± 0.094 | 0.923 ± 0.066 | 0.92 ± 0.061 | 0.76 ± 0.094 | 0.825 ± 0.065 | 0.829 ± 0.14 | 0.81 ± 0.11 | 0.983 ± 0.06 | 1.02 ± 0.034 | 1.01 ± 0.035 | 1.02 ± 0.17
